Broadly, the IC50 is the concentration needed to halve the response being measured. Lower therefore signals greater potency in that assay.

SMILES strings stand for the structures.

For assay [1], the system named is APAP-induced liver injury in MLKL−/− C57BL/6 mice. In words: APAP-induced liver injury in MLKL knockout mice. The class given is in vivo, mouse. The settings on record: 15 mg/kg, 400 mg/kg APAP, 24 h. The method, then: For APAP-induced liver injury, male BALB/c mice aged 6–8 weeks (Central Lab Animal Inc., S. Korea) and male MLKL^–/– C57BL/6 mice aged 6–8 weeks (Cyagen, Santa Clara, CA, USA) were administered acetaminophen (APAP; 400–500 mg/kg, 103-90-2, Sigma-Aldrich) by i.p. injection to induce liver injury in the presence or absence of APO after 12 h of fasting. After 24 h, the mice were sacrificed to obtain liver tissues for further analysis.
For liver tissue preparation, each liver was perfused with DPBS and then fixed in 4% paraformaldehyde (PFA; PC2031-050-00, Biosesang, S. Korea) before embedding in paraffin. Sections were stained with H&E, and necrotic areas were quantified using ImageJ by calculating the proportion of pale or unstained regions relative to the total tissue area. Mouse liver sections were subjected to IHC staining to assess distinct forms of cell death: an anti-p-MLKL antibody (MA5-32752, Thermo Fisher Scientific) to evaluate p-MLKL localization (necroptosis), a TUNEL assay kit (4810-30-K, R&D Systems) for apoptosis, and an anti-4-HNE antibody (GTX01087, GeneTex) for ferroptosis.
Fig. S6 APO reduces liver damage in MLKL^–/– mice. […] Necrotic areas were quantified as the proportion of unstained regions relative to the total tissue area. […] (D) Serum AST and ALT levels were evaluated to assess liver injury after APAP injection. […]

For assay [2], the system named is THP-1 cells. In words: Released HMGB1 in supernatant of TBZ-treated cells. Format: cell-based, human. The note with it: TBZ-treated THP-1, different concentrations, 8 h. The method, then: TBZ-treated cell supernatants were harvested and centrifuged using Amicon ultra centrifugal filters 10 kDa (UFC501096, Millipore, Billerica, MA, USA) at 4000×g for 1 h. The concentrated supernatants were analyzed using SDS-PAGE to assess released HMGB1 levels.

Assay [3] relates to THP-1 cells. Nature of the assay: PI uptake assay after TBZ treatment. The note with it: Homo sapiens; THP-1, TBZ, 8 h. Format: cell-based. How it is done: To identify potential inhibitors of the necroptosis pathway targeting MLKL or the process of p-MLKL pore formation on the membrane, we screened a library of 2150 compounds, including FDA-approved drugs and those in phase 1–3 clinical trials, using THP-1-HMGB1-Lucia™ cells expressing the HMGB1-luciferase fusion protein. The cells were treated with a necroptosis-inducing mixture containing TNF-α, BV6, and Z-VAD-FMK (TBZ) in addition to the compound library (Fig. 1A). The supernatants were harvested to measure luciferase activities for necroptosis. The luciferase activities of cell supernatants treated with TBZ alone were considered as the maximum release (100%) of HMGB1-luciferase. NEC-1, a known RIP1 inhibitor used in both humans and mice, was used as a positive control. An initial screening was performed to identify compounds that reduced luciferase activity to within 20% of the TBZ-treated supernatant, and 72 compounds (S1–S72) were selected (Table S1). Among these compounds were four known necroptosis inhibitors of pazopanib (S10), bardoxolone (S16), ponatinib (S17), and dabrafenib (S31), indicating the reliability of this screening assay. […]
PI uptake assays were performed in triplicate to evaluate pore formation on the plasma membrane. […] Fluorescence was recorded using a Varioskan Flash 3001 plate reader (Thermo Fisher Scientific, Waltham, MA, USA).

Regarding `CN1CCc2cccc3c4c(cc1c23)C=CC(=O)C4=O` [Ox-APO], the “hepatic damage (H&E, ALT, AST, TUNEL, 4-HNE)” value in assay [1] is listed as “significantly reduced”.

Take `CN1CCc2cccc3c2[C@@H]1Cc1ccc(O)c(O)c1-3` [S62, (6aS)-6-methyl-5,6,6a,7-tetrahydro-4H-dibenzo[de,g]quinoline-10,11-diol]: the HMGB1 release entry in assay [2] is given as “dose-dependently decreased”. The molecule further displayed an IC50 in assay [3] of 5.7 µM.

These data come from PMC12518639, “Apomorphine is a novel necroptosis inhibitor targeting mixed lineage kinase domain-like protein oligomerization” (Cell Death Discovery, 2025).
